EP0589069A1, “Hydroquinone derivatives and antioxidants and tumor inhibitors containing them” (NIPPON HYPOX LABORATORIES INCORPORATED, priority 1992, dated 1994)

Tests used:
[1] = tested on: lipid of rat liver microsome; assay: Inhibition activity against hyperoxidation of lipid of rat liver microsome (thiobarbituric acid method); type: biochemical; conditions: for Inhibition ratio of lipid peroxidation (%): rat liver microsome, NADPH/ADP/FeCl₃, 37°C; for antioxidant activity (result in words on Table 2): summary of Table 2
Procedure: [Inhibition activity against hyperoxidation of lipid of rat liver microsome]
A plurality of male SD rats (weighing […]) were prepared. Each rat was anesthetized with pentobarbital, and then subjected to celiotomy. A cannula was introduced into the portal vein of each rat, the abdominal large veins were sectioned, and 500 ml of cold 0.9 % NaCl was injected into the portal veins.
Livers were extracted from individual rats, and the livers were cut to pieces in 1.15 % KCl and homogenized with ice cooling. Then, 1.15 % KCl was further added to obtain a 30 % liver homogenized solution.
The above homogenized solution was centrifugally separated at 8,000 g (g: gravitation acceleration) for 10 minutes, and the resultant supernatant was recovered.
The so-prepared suspension was stored at -20°C before a test described in the following (2), and it was used within 1 week after the preparation.
As test compounds, the hydroquinone derivatives obtained in Preparation Examples 1 to 12, a known hydroquinone derivative which was a compound of the formula (I) in which R¹ was methyl (hereinafter referred to as HQ1) and BHT were respectively tested on their inhibition activities against hyperoxidation of lipid in the following manner.
First, 0.1 ml of the liver microsome suspension obtained in the above (1), 0.1 ml of NADPH (final concentration 2 mM), 0.1 ml of ADP (final concentration 10 mM) and 0.1 ml of a solution of one of the test compounds whose concentration was adjusted as shown in Table 2 with 10 % DMF were added to a tris-HCl buffer (167 mM KCl, 74 mM TRIS, pH 7.4), and the resultant mixture was warmed at 37°C for 5 minutes. Then, 0.1 ml of FeCl₃ (final concentration 0.1 mM) was added, and the mixture was warmed at 37°C for 20 minutes.
The resultant reaction mixture was cooled with ice. Then, 0.2 ml of 8.1 % SDS, 1.5 ml of an acetic acid buffer (prepared by adjusting 20 % acetic acid containing 0.27 mM HCl to pH 3.5 with 10N NaOH) and 1.5 ml of 0.8 % thiobarbituric acid were added to the cooled reaction mixture, and the resultant mixture was warmed over a boiling water bath for 20 minutes. After the warming, the reaction mixture was cooled with ice, and 4 ml of an n-BuOH/pyridine mixed solution [n-BuOH:pyridine = 15:1 (volume ratio)] was added to the cooled reaction mixture. The mixture was vigorously stirred.
The reaction mixture was centrifugally separated at 2,000 rpm for 10 minutes, and the resultant supernatant was measured for an absorbance at 532 nm to determine a thiobarbituric acid reaction amount. And, on the basis of a calibration curve of […] (MDA) amount prepared by using 1,1,3,3-tetramethoxypropane, a peroxidized lipid amount was determined as an amount of formed MDA.
In Control, the solution of the test compound in 10 % DMF was replaced with 0.1 ml of a 10 % DMF solution, and the above procedures were repeated to determine a peroxidized lipid amount. In Blank, each of 0.1 ml of NDAPH, 0.1 ml of ADP and 0.1 ml of FeCl₃ were replaced with 0.1 ml of water, the solution of the test compound in 10 % DMF was replaced with 0.1 ml of a 10 % DMF solution, and the above procedures were repeated to determine a peroxidized lipid amount.
The inhibition ratio of the lipid peroxidation reaction was calculated on the basis of the following equation. Inhibition ratio (%) =[1-(OD₁-OD₃)/(OD₂-OD₃)] x 100 [formula] OD₁: Absorbance when test compound is added. OD₂: Absorbance of Control OD₃: Absorbance of Blank

Salmonella TA 98 = assay: Antimutagenic activity test on mutagenesis of heterocyclic amine to Salmonellae (preincubation Ames test with S9 mix); type: cell-based; conditions: mutagen IQ 0.005 µg; test compound 20.0 µg
Procedure: Compounds of the present invention were tested on their antimutagenic activity to heterocyclic amines of Glu-P-1·HCl, Trp-P-1 acetate and IQ by a preincubation method-applied Ames test according to the method of Diane et al (Diane F. Birt, et al., Carcinogenesis, Vol. 7, No. 6, 959-963, 1986).
That is, S9 mix (0.5 ml), 0.1 ml of a Salmonella TA 98 medium, a compound of the present invention dissolved in DMSO and 0.1 ml of one of the above mutagens were charged into a test tube, and cultured at 37°C for 20 minutes with shaking. Then, 2 ml of soft agar was added to, and mixed with, the contents in the test tube. The resultant mixture was spread over a minimal glucose agar medium, and cultured at 37°C for 48 hours, and the number of reverse mutation colonies. Two or three plates were prepared each dosage, and the test results were compared with the test result of a negative control group to which DMSO alone was added and the test result of a positive control group to which the corresponding mutagen alone was added. […]

[2] = test compound concentration 10⁻⁶M
[3] = test compound concentration 10⁻⁵M

| Substance | Inhibition ratio of lipid peroxidation (%) [1, 2] [%] | Mutagenesis inhibition ratio (Salmonella TA 98) | antioxidant activity (result in words on Table 2) [1] | Inhibition ratio of lipid peroxidation (%) [1, 3] [%] |
| --- | --- | --- | --- | --- |
| 1-butyl-2,3,5-trimethylhydroquinone [Preparation Example 3] | 75.9 | 85 | – | – |
| 1-decylhydroquinone [Preparation Example 2] | 1.8 | – | excellent antioxidant activity over the known hydroquinone derivative HQ1 | 79.5 |
| 1-octylhydroquinone [Preparation Example 1] | 9.8 | – | excellent antioxidant activity over the known hydroquinone derivative HQ1 | 99.7 |
| 4-hexyl-2,3,5-trimethylhydroquinone [Preparation Example 8] | 40 | – | – | 98.3 |
